# Tested on: 953936-095-R-J2-PDC spheroids with HUVEC/MSC, viability
# Assay: Anticancer human tumor 953936-095-R-J2-PDC patient-derived cervical squamous cell carcinoma cell line growth inhibition [PI3K]
# Conditions: for IC50: curve of first compound; for viability, T/C: stronger effect = lower value
# Text: Combinatorial screen of targeted agents with the PI3K inhibitors inavolisib, alpelisib, duvelisib, and copanlisib in multi-cell type tumor spheroids
# A high-throughput screen of multi-cell type tumor spheroids was designed to identify active combinations of targeted small molecules and PI3K pathway inhibitors. Complex spheroids include a stromal component modeled by human endothelial cells (HUVEC) and fibroblasts modeled by human mesenchymal stem cells (MSCs). The concentration ranges selected for each drug and investigational agent were based upon clinically achievable concentrations if the clinical Cmax of the agent was known.
# Compounds. The drugs and investigational agents: inavolisib (NSC800729), alpelisib (NSC765974), duvelisib (NSC772469), copanlisib (NSC816437), ipatasertib (NSC767898), afuresertib (NSC778305), talazoparib (NSC767125), sapanisertib (NSC764658), selumetinib (NSC741078), tovorafenib (DAY101, NSC766906), vemurafenib (NSC761431), ravoxertinib (NSC781343), sotorasib (NSC818433), MRTX1133 (NSC 836407), abemaciclib (NSC 768073), palbociclib (NSC758247), venetoclax (NSC 766270), SY5609 (NSC837396), enzalutamide (NSC755605), and darolutamide (NSC825331), were obtained from the National Cancer Institute (NCI) Developmental Therapeutics Program Chemical Repository. The FDA-approved anticancer drug set is available from the NCI Developmental Therapeutics Program. […] The stock solutions were prepared in dimethyl sulfoxide (DMSO, Sigma-Aldrich, St. Louis, MO, cat. D2650) at 800-fold the tested concentration and stored at -70 degrees C prior to their use. All drugs and investigational agents were tested over a range starting from a high concentration at or near the clinical Cmax and decreasing in half-log increments. If the clinical Cmax for an agent had not been determined, the highest concentration tested was 10 microM.
# Cell Culture. All cells were maintained in an incubator at 37 degrees C and 5% CO2 with 95% humidity. The PDC lines were cultured according to standard operating procedures established by the NCI PDMR (https://pdmr.cancer.gov/sops/default.htm). All PDCs were thawed and cultured in Matrigel-coated flasks prepared with a working solution of 1X Ham's F-12 nutrient mix, without supplementation (Invitrogen, Waltham, MA, cat. 11765054), 100 U/mL penicillin-streptomycin (Invitrogen, cat. 15140122), and 2.5% Matrigel (Corning Inc., Corning, NY, cat. 354248) for the first three passages. The 354836-022-R-J1-PDC, 475296-252-R-J1-PDC, and 997726-040-R-J2-PDC lines were cultured in 6A media, which includes advanced DMEM/F-12 (Thermo Fisher Scientific, cat. 12634028), 10 mM HEPES (Thermo Fisher Scientific, cat. 15630080), 1X GlutaMAX supplement (Thermo Fisher Scientific, cat. 35050061), 0.1 mg/mL primocin (InvivoGen, San Diego, CA, cat. ant-pm-2), 10% defined fetal bovine serum, heat inactivated (HyClone Laboratories Inc., Logan, UT, cat. SH30070.03HI), 50% L-WRN conditioned media (ATCC, cat. CRL-3276), 1.25 mM N-Acetyl-L-cysteine (Sigma-Aldrich, cat. A9165), 10 mM nicotinamide (Sigma-Aldrich, cat. N0636), 1X B-27 supplement (Thermo Fisher Scientific, cat. 17504044), 1X N-2 supplement (Thermo Fisher Scientific, cat. 17502048), and 10 microM Y-27632 dihydrochloride (Tocris Bioscience, Bristol, United Kingdom, cat. 1254). The 624824-186-R-J2-PDC line was cultured in 6C/Colon 1B media, which includes all 6A media components plus 50 ng/mL human EGF recombinant protein (Thermo Fisher Scientific, cat. PHG0311). […]
# 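Further: spheroids exposed to compounds for seven days before read-out.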
smiles,measurement,setting,value
CC(=O)c1c(C)c2cnc(Nc3ccc(N4CCNCC4)cn3)nc2n(C2CCCC2)c1=O + CC(Nc1ccc2c(c1)OCCn1cc(N3C(=O)OCC3C(F)F)nc1-2)C(N)=O,IC50,second compound 0.00316 µM,> 100 nM
same,IC50,second compound 0.01 µM,> 100 nM
same,IC50,second compound 0.0316 µM,> 100 nM
same,IC50,second compound 0.1 µM,> 100 nM
same,IC50,second compound 0.316 µM,< 0.316 nM
same,IC50,second compound 1 µM,< 0.316 nM
same,"viability, T/C","second compound 0.00316 µM, first compound 0.000316 µM",89.4%
same,"viability, T/C","second compound 0.00316 µM, first compound 0.001 µM",93.1%
same,"viability, T/C","second compound 0.00316 µM, first compound 0.00316 µM",98%
same,"viability, T/C","second compound 0.00316 µM, first compound 0.01 µM",99.6%
same,"viability, T/C","second compound 0.00316 µM, first compound 0.0316 µM",93.5%
same,"viability, T/C","second compound 0.00316 µM, first compound 0.1 µM",93.3%
same,"viability, T/C","second compound 0.01 µM, first compound 0.000316 µM",94.9%
same,"viability, T/C","second compound 0.01 µM, first compound 0.001 µM",87.5%
same,"viability, T/C","second compound 0.01 µM, first compound 0.00316 µM",88.9%
same,"viability, T/C","second compound 0.01 µM, first compound 0.01 µM",93.8%
same,"viability, T/C","second compound 0.01 µM, first compound 0.0316 µM",85.7%
same,"viability, T/C","second compound 0.01 µM, first compound 0.1 µM",92%
same,"viability, T/C","second compound 0.0316 µM, first compound 0.000316 µM",76.3%
same,"viability, T/C","second compound 0.0316 µM, first compound 0.001 µM",74.9%
same,"viability, T/C","second compound 0.0316 µM, first compound 0.00316 µM",74.8%
same,"viability, T/C","second compound 0.0316 µM, first compound 0.01 µM",76.5%
same,"viability, T/C","second compound 0.0316 µM, first compound 0.0316 µM",79.1%
same,"viability, T/C","second compound 0.0316 µM, first compound 0.1 µM",68.4%
same,"viability, T/C","second compound 0.1 µM, first compound 0.000316 µM",66.9%
same,"viability, T/C","second compound 0.1 µM, first compound 0.001 µM",59.6%
same,"viability, T/C","second compound 0.1 µM, first compound 0.00316 µM",58.6%
same,"viability, T/C","second compound 0.1 µM, first compound 0.01 µM",54.5%
same,"viability, T/C","second compound 0.1 µM, first compound 0.0316 µM",55.6%
same,"viability, T/C","second compound 0.1 µM, first compound 0.1 µM",54.5%
same,"viability, T/C","second compound 0.316 µM, first compound 0.000316 µM",35.2%
same,"viability, T/C","second compound 0.316 µM, first compound 0.001 µM",34.6%
same,"viability, T/C","second compound 0.316 µM, first compound 0.00316 µM",35.6%
same,"viability, T/C","second compound 0.316 µM, first compound 0.01 µM",37.7%
same,"viability, T/C","second compound 0.316 µM, first compound 0.0316 µM",33.6%
same,"viability, T/C","second compound 0.316 µM, first compound 0.1 µM",35.3%
same,"viability, T/C","second compound 1 µM, first compound 0.000316 µM",25%
same,"viability, T/C","second compound 1 µM, first compound 0.001 µM",22.6%
same,"viability, T/C","second compound 1 µM, first compound 0.00316 µM",21.7%
same,"viability, T/C","second compound 1 µM, first compound 0.01 µM",22%
same,"viability, T/C","second compound 1 µM, first compound 0.0316 µM",25.5%
same,"viability, T/C","second compound 1 µM, first compound 0.1 µM",22.9%
